{
  "source": "patent US20120258980A1",
  "about": "“Antibacterial Agent for Drug-Resistant Bacteria, Method for Screening for Same, and Use of Same” (priority 2009, published 2012)",
  "key": {"[1]": {"tested_on": "methicillin-susceptible S. aureus (MSSA), MRSA and mutants thereof", "test": "MIC measurement, Test Example 3 (MSSA, MRSA and sequential gyrA/grlA quinolone-resistant mutants)", "format": "cell-based, Staphylococcus aureus", "conditions": "Staphylococcus aureus", "excerpt": "That is, the first-step quinolone-resistant mutants are bacterial strains which are the same as their parent strains (clinical isolates) except that the genes shown in the corresponding parts of Table 1-1 are mutated. The second-step quinolone-resistant mutants are bacterial strains which are the same as the first-step quinolone-resistant mutants except that the genes shown in the corresponding parts of Table 1-1 are further mutated. The third-step quinolone-resistant mutants are bacterial strains which are the same as the second-step quinolone-resistant mutants except that the genes shown in the corresponding parts of Table 1-1 are further mutated. The fourth-step quinolone-resistant strain is a bacterial strain which is the same as the third-step quinolone-resistant mutant bacteria except that the gene shown in the corresponding part of Table 1-1 is further mutated.\n(§1) Each of the bacterial strains listed in Table 1-1 was shake-cultured at 37° C. overnight in 4 mL of a medium (Tryptical Soy Broth: TSB, product of Becton Dickinson and Company). FDA209P was used as a control.\n(§2) After completion of culturing, the resultant culture was suspended in a cation-adjusted Mueller Hinton Broth (CAMHB, product of Becton Dickinson and Company). Then, the obtained bacterial culture was adjusted in absorbance with the CAMHB so that the absorbance at 578 nm of the bacterial culture was adjusted to 0.3 measured by an absorption spectrometer. In addition, the resultant bacterial culture was 500-fold diluted with the CAMHB.\n(§3) Each of the 500-fold diluted, pre-cultured bacterial cultures was added at 50 μL/well to the CAMHB containing the quinolones and the nybomycins at various concentrations (50 μL/well), followed by statically culturing at 37° C. overnight.\n(§4) After completion of culturing, the growth of the bacteria was visually determined based on turbidity to measure MIC in each bacterial strain."}, "[2]": {"tested_on": "VRSA clinical isolates", "test": "microbe, parasite or virus in culture", "format": "cell-based", "conditions": "Staphylococcus aureus", "protocol": "as §1, §2, §3, §4\nHere, the glycopeptides used were VCM and TEIC. The β-lactam used was OXA."}, "[3]": {"tested_on": "Enterococcus faecalis", "test": "MIC measurement, Test Example 6 (enterococcus)", "format": "cell-based", "conditions": "Enterococcus faecalis, read-out: MIC", "protocol": "as §1, §2, §3, §4\nQuinolones and nybomycins were evaluated for antibacterial activity against Enterococcus faecalis shown in Table 6, wherein the other strains than NCTC12201 and NCTC12203 were subdivided from Shionogi & Co., Ltd (note that these strains are available also from the Department of Bacteriology, Juntendo University). The NCTC strains are both vancomycin-resistant E. faecalis and available from the National Collection of Type Cultures (NCTC)."}, "[4]": {"tested_on": "MRSA, CA-MRSA and MSSA of Staphylococcus aureus", "test": "MIC measurement, Test Example 4 (MRSA, CA-MRSA and MSSA strains)", "format": "cell-based", "conditions": "Staphylococcus aureus", "outline": "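S. aureus strains (FDA209P control) grown overnight in TSB at 37° C, resuspended in CAMHB, adjusted to A578 0.3 and diluted 500-fold. Equal volume added to CAMHB with serial compound concentrations, incubated statically overnight at 37° C. MIC read visually as lowest concentration without turbidity.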"}},
  "note": "Read-outs that look alike come from different tables or passages of the source.",
  "data": [
    {"smiles": "CCn1cc(C(=O)O)c(=O)c2cc(F)c(N3CCNCC3)cc21", "note": "[NFLX, norfloxacin]", "values": [
      {"measurement": "MIC", "setting": "[1]; MR5867-2, second-step mutant, further gyrA S84L", "result": 64, "unit": "µg/mL"},
      {"measurement": "MIC", "setting": "[1]; MR5867-3, third-step mutant, further grlA S80F", "result": "> 128", "unit": "µg/mL"},
      {"measurement": "MIC", "setting": "[1]; MR5867-4, fourth-step mutant, further gyrA E88K", "result": "> 128", "unit": "µg/mL"},
      {"measurement": "MIC", "setting": "[2]; VRS1, VRSA, Michigan", "result": "> 128", "unit": "µg/mL"},
      {"measurement": "MIC", "setting": "[2]; VRS2, VRSA, Pennsylvania", "result": "> 128", "unit": "µg/mL"},
      {"measurement": "MIC", "setting": "[2]; VRS3, VRSA, New York", "result": 128, "unit": "µg/mL"},
      {"measurement": "MIC", "setting": "[2]; VRS4, VRSA, New York", "result": 128, "unit": "µg/mL"},
      {"measurement": "MIC", "setting": "[2]; VRS5, VRSA, Michigan", "result": "> 128", "unit": "µg/mL"},
      {"measurement": "MIC", "setting": "[2]; VRS6, VRSA, Michigan", "result": "> 128", "unit": "µg/mL"},
      {"measurement": "MIC", "setting": "[2]; VRS7, VRSA, Michigan", "result": "> 128", "unit": "µg/mL"},
      {"measurement": "MIC", "setting": "[3]; E. faecalis 36-15672, quinolone-susceptible enterococci", "result": 4, "unit": "µg/mL"},
      {"measurement": "MIC", "setting": "[3]; E. faecalis 36-15673, quinolone-susceptible enterococci", "result": 4, "unit": "µg/mL"},
      {"measurement": "MIC", "setting": "[3]; E. faecalis 36-15678, quinolone-susceptible enterococci", "result": 4, "unit": "µg/mL"},
      {"measurement": "MIC", "setting": "[3]; E. faecalis 36-15686, quinolone-resistant enterococci", "result": "> 128", "unit": "µg/mL"},
      {"measurement": "MIC", "setting": "[3]; E. faecalis 36-15688, quinolone-susceptible enterococci", "result": 2, "unit": "µg/mL"},
      {"measurement": "MIC", "setting": "[3]; E. faecalis 36-15694, quinolone-resistant enterococci", "result": "> 128", "unit": "µg/mL"},
      {"measurement": "MIC", "setting": "[3]; E. faecalis 36-15696, quinolone-susceptible enterococci", "result": 4, "unit": "µg/mL"},
      {"measurement": "MIC", "setting": "[3]; E. faecalis 36-15703, quinolone-resistant enterococci", "result": 64, "unit": "µg/mL"},
      {"measurement": "MIC", "setting": "[3]; E. faecalis 36-15716, quinolone-resistant enterococci", "result": "> 128", "unit": "µg/mL"},
      {"measurement": "MIC", "setting": "[3]; E. faecalis 36-15718, quinolone-susceptible enterococci", "result": 4, "unit": "µg/mL"},
      {"measurement": "MIC", "setting": "[3]; E. faecalis 36-15720, quinolone-susceptible enterococci", "result": 8, "unit": "µg/mL"},
      {"measurement": "MIC", "setting": "[3]; E. faecalis 36-15722, quinolone-resistant enterococci", "result": 128, "unit": "µg/mL"},
      {"measurement": "MIC", "setting": "[3]; E. faecalis 36-15726, quinolone-resistant enterococci", "result": 128, "unit": "µg/mL"},
      {"measurement": "MIC", "setting": "[3]; E. faecalis 36-15730, quinolone-susceptible enterococci", "result": 8, "unit": "µg/mL"},
      {"measurement": "MIC", "setting": "[3]; E. faecalis 36-15736, quinolone-susceptible enterococci", "result": 4, "unit": "µg/mL"},
      {"measurement": "MIC", "setting": "[3]; E. faecalis 36-15741, quinolone-susceptible enterococci", "result": 4, "unit": "µg/mL"},
      {"measurement": "MIC", "setting": "[3]; NCTC 12201 / VRE, E. faecalis NCTC12201, vancomycin-resistant (VRE), quinolone-susceptible enterococci", "result": 2, "unit": "µg/mL"},
      {"measurement": "MIC", "setting": "[3]; NCTC 12203 / VRE, E. faecalis NCTC12203, vancomycin-resistant (VRE), quinolone-susceptible enterococci", "result": 2, "unit": "µg/mL"},
      {"measurement": "MIC", "setting": "[4]; ATCC 29213 / MRSA / MSSA, ATCC 29213, MSSA", "result": 1, "unit": "µg/mL"},
      {"measurement": "MIC", "setting": "[4]; COL, MRSA", "result": 1, "unit": "µg/mL"},
      {"measurement": "MIC", "setting": "[4]; FDA209P / MRSA / MSSA, FDA209P, MSSA", "result": 0.25, "unit": "µg/mL"},
      {"measurement": "MIC", "setting": "[4]; ISA12-1, MRSA", "result": 1, "unit": "µg/mL"},
      {"measurement": "MIC", "setting": "[4]; ISA12-2, MRSA", "result": 1, "unit": "µg/mL"},
      {"measurement": "MIC", "setting": "[4]; ISA35-1, MRSA", "result": 16, "unit": "µg/mL"},
      {"measurement": "MIC", "setting": "[4]; ISA37-1, MSSA", "result": 1, "unit": "µg/mL"},
      {"measurement": "MIC", "setting": "[4]; ISA49-1, MSSA", "result": 1, "unit": "µg/mL"},
      {"measurement": "MIC", "setting": "[4]; ISA51-1, MSSA", "result": 0.5, "unit": "µg/mL"},
      {"measurement": "MIC", "setting": "[4]; ISA56-3, MRSA", "result": 0.25, "unit": "µg/mL"},
      {"measurement": "MIC", "setting": "[4]; ISA58-1, MRSA", "result": 1, "unit": "µg/mL"},
      {"measurement": "MIC", "setting": "[4]; ISA62-1, MRSA", "result": 1, "unit": "µg/mL"},
      {"measurement": "MIC", "setting": "[4]; ISA73-1, MSSA", "result": 1, "unit": "µg/mL"},
      {"measurement": "MIC", "setting": "[4]; KBSA32, MRSA", "result": 0.5, "unit": "µg/mL"},
      {"measurement": "MIC", "setting": "[4]; KBSA34, MRSA", "result": 1, "unit": "µg/mL"},
      {"measurement": "MIC", "setting": "[4]; KBSA72, MRSA", "result": "> 128", "unit": "µg/mL"},
      {"measurement": "MIC", "setting": "[4]; KBSA96, MRSA", "result": 128, "unit": "µg/mL"},
      {"measurement": "MIC", "setting": "[4]; KBSA171, MRSA", "result": "> 128", "unit": "µg/mL"},
      {"measurement": "MIC", "setting": "[4]; KSA24, MRSA", "result": 128, "unit": "µg/mL"},
      {"measurement": "MIC", "setting": "[4]; KSA31, MRSA", "result": 32, "unit": "µg/mL"},
      {"measurement": "MIC", "setting": "[4]; KSA36, MRSA", "result": "> 128", "unit": "µg/mL"},
      {"measurement": "MIC", "setting": "[4]; MRSA / MSSA / NCTC 8325, NCTC 8325, MSSA", "result": 1, "unit": "µg/mL"},
      {"measurement": "MIC", "setting": "[4]; MRSA / MSSA / USA300, USA300 FPR3757, CA-MRSA", "result": 32, "unit": "µg/mL"},
      {"measurement": "MIC", "setting": "[4]; MW2, CA-MRSA", "result": 0.5, "unit": "µg/mL"},
      {"measurement": "MIC", "setting": "[4]; N315, MRSA", "result": 1, "unit": "µg/mL"}
    ]}
  ]
}
